Results on 23 compounds are retold here after patent US20260248783A1 (ASCLETIS BIOSCIENCE CO., LTD., priority 2021, published 2026).

Where a name gives a salt, the structure may show the parent alone.

For the assay, the target named is T1, PD-1/PD-L1 (Homo sapiens, UniProt Q9NZQ7).
T1 construct: Recombinant human PD-L1 protein (19-238) with a Histag at the C-terminus; purchased AcroBiosystems PD1-H5229 (PD-L1); PD1-H5257 (PD-1)
T1 sequence (Q9NZQ7 19-238): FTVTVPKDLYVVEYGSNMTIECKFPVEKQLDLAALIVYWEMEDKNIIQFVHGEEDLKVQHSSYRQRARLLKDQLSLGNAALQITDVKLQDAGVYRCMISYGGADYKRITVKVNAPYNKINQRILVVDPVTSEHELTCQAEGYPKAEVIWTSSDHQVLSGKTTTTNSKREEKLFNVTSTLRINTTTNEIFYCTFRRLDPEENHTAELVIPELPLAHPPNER
Nature of the assay: PD-1/PD-L1 Homogeneous Time-Resolved Fluorescence (HTRF) Binding Assay. The settings on record: PD-1/PD-L1 HTRF activity; 3 nM PD1, 10 nM PD-L1, 25° C. The protocol: Example 107. PD-1/PD-L1 Homogeneous Time-Resolved Fluorescence (HTRF) Binding Assay
The assays were conducted in a standard black 384-well polystyrene plate with a final volume of 20 μL. Inhibitors were first serially diluted in DMSO and then added to the plate wells before the addition of other reaction components. The final concentration of DMSO in the assay was 1%. The assays were carried out at 25° C. in the PBS buffer (pH 7.4) with 0.05% Tween-20 and 0.1% BSA. Recombinant human PD-L1 protein (19-238) with a Histag at the C-terminus was purchased from AcroBiosystems (PD1-H5229). Recombinant human PD-1 protein (25-167) with Fe tag at the C-terminus was also purchased from AcroBiosystems (PD1-H5257). PD-L1 and PD-1 proteins were diluted in the assay buffer and 10 μL was added to the plate well. Plates were centrifuged and proteins were preincubated with inhibitors for 40 minutes. The incubation was followed by the addition of 10 μL of HTRF detection buffer supplemented with Europium cryptate-labeled anti-human IgG (PerkinElmer-AD0212) specific for Fe and anti-His antibody conjugated to SureLight®—Allophycocyanin (APC, PerkinElmer-AD0059H). After centrifugation, the plate was incubated at 25° C. for 60 min. before reading on a PHERAstar FS plate reader (665 nm/620 nm ratio). Final concentrations in the assay were […], 10 nM PD-L1, 1 nM europium anti-human IgG and 20 nM anti-His-Allophycocyanin. IC50 determination was performed by fitting the curve of percent control activity versus the log of the inhibitor concentration.
As for `O=C1NCCN1CCn1cnn2cc(-c3cccc(-c4cccc(-c5cc6c(=O)n(CCN7CCNC7=O)cnn6c5)c4Cl)c3Cl)cc2c1=O` [Compound 19, 6,6′-(2,2′-dichloro-[1,1′-biphenyl]-3,3′-diyl)bis(3-(2-(2-oxoimidazolidin-1-yl)ethyl)pyrrolo[2,1-f][1,2,4]triazin-4(3H)-one)], the IC50 was at least 100 nM.

`O=c1c2cc(-c3cccc(-c4cccc(-c5cc6c(=O)n(CCO)cnn6c5)c4Cl)c3Cl)cn2ncn1CCO` [Compound 20, 6,6′-(2,2′-dichloro-[1,1′-biphenyl]-3,3′-diyl)bis(3-(2-hydroxyethyl)pyrrolo[2,1-f][1,2,4]triazin-4(3H)-one)]: the IC50 is at least 100 nM.

In the case of `O=c1c2cc(-c3cccc(-c4cccc(-c5cc6c(=O)n(CCn7cccn7)cnn6c5)c4Cl)c3Cl)cn2ncn1CCn1cccn1` [Compound 21, 6,6′-(2,2′-dichloro-[1,1′-biphenyl]-3,3′-diyl)bis(3-(2-(1H-pyrazol-1-yl)ethyl)pyrrolo[2,1-f][1,2,4]triazin-4(3H)-one)], the IC50 is at least 100 nM.

The compound `O=c1c2cc(-c3cccc(-c4cccc(-c5cc6c(=O)n(CCn7cncn7)cnn6c5)c4Cl)c3Cl)cn2ncn1CCn1cncn1` [Compound 22, 6,6′-(2,2′-dichloro-[1,1′-biphenyl]-3,3′-diyl)bis(3-(2-(1H-1,2,4-triazol-1-yl)ethyl)pyrrolo[2,1-f][1,2,4]triazin-4(3H)-one)] registered a half-inhibitory concentration (IC50) of 10 to 100 nM.

As for `O=C(O)Cn1cnn2cc(-c3cccc(-c4cccc(-c5cc6c(=O)n(CC(=O)O)cnn6c5)c4Cl)c3Cl)cc2c1=O` [Compound 23, 2,2′-((2,2′-dichloro-[1,1′-biphenyl]-3,3′-diyl)bis(4-oxopyrrolo[2,1-f][1,2,4]triazine-6,3(4H)-diyl))diacetic acid], the IC50 is at least 100 nM.

Compound `O=C(O)CCn1cnn2cc(-c3cccc(-c4cccc(-c5cc6c(=O)n(CCC(=O)O)cnn6c5)c4Cl)c3Cl)cc2c1=O` [Compound 24, 3,3′-((2,2′-dichloro-[1,1′-biphenyl]-3,3′-diyl)bis(4-oxopyrrolo[2,1-f][1,2,4]triazine-6,3(4H)-diyl))dipropionic acid] yielded an IC50 of at least 100 nM.

Turning to `O=c1c2cc(-c3cccc(-c4cccc(-c5cc6c(=O)n(CCn7nccn7)cnn6c5)c4Cl)c3Cl)cn2ncn1CCn1nccn1` [Compound 25, 6,6′-(2,2′-dichloro-[1,1′-biphenyl]-3,3′-diyl)bis(3-(2-(2H-1,2,3-triazol-2-yl)ethyl)pyrrolo[2,1-f][1,2,4]triazin-4(3H)-one)], the IC50 fell in the range of 10 to 100 nM.

Compound `CN1CCN(CCn2cnn3cc(-c4cccc(-c5cccc(-c6cc7c(=O)n(CCN8CCN(C)CC8)cnn7c6)c5Cl)c4Cl)cc3c2=O)CC1` [Compound 26, 6,6′-(2,2′-dichloro-[1,1′-biphenyl]-3,3′-diyl)bis(3-(2-(4-methylpiperazin-1-yl)ethyl)pyrrolo[2,1-f][1,2,4]triazin-4(3H)-one)] gave an IC50 of at least 100 nM.

`O=C1CCC(Cn2cnn3cc(-c4cccc(-c5cccc(-c6cc7c(=O)n(CC8CCC(=O)O8)cnn7c6)c5Cl)c4Cl)cc3c2=O)O1` (centres unmarked) [Compound 27, 6,6′-(2,2′-dichloro-[1,1′-biphenyl]-3,3′-diyl)bis(3-((5-oxotetrahydrofuran-2-yl)methyl)pyrrolo[2,1-f][1,2,4]triazin-4(3H)-one)]: the IC50 was at least 100 nM.

As for `O=C(O)CCC(O)Cn1cnn2cc(-c3cccc(-c4cccc(-c5cc6c(=O)n(CC(O)CCC(=O)O)cnn6c5)c4Cl)c3Cl)cc2c1=O` (centres unmarked) [Compound 28, 5,5′-((2,2′-dichloro-[1,1′-biphenyl]-3,3′-diyl)bis(4-oxopyrrolo[2,1-f][1,2,4]triazine-6,3(4H)-diyl))bis(4-hydroxypentanoic acid)], the IC50 is at least 100 nM.

In the case of `Cc1cn2nc(-c3cccc(-c4cccc(-c5cc6c(=O)n(C[C@@H]7CCC(=O)N7)c(C)cn6n5)c4Cl)c3Cl)cc2c(=O)n1C[C@@H]1CCC(=O)N1` [Compound 29], the IC50 was under 10 nM.

Compound `Cc1cn2cc(-c3cccc(-c4cccc(-c5cc6c(=O)n(C[C@@H]7CCC(=O)N7)c(C)cn6c5)c4Cl)c3Cl)cc2c(=O)n1C[C@@H]1CCC(=O)N1` [Compound 30, 7,7′-(2,2′-dichloro-[1,1′-biphenyl]-3,3′-diyl)bis(3-methyl-2-(((S)-5-oxopyrrolidin-2-yl)methyl)pyrrolo[1,2-a]pyrazin-1(2H)-one)] came in with an IC50 of under 10 nM.

`O=C1CC[C@@H](Cn2c(C3CC3)cn3cc(-c4cccc(-c5cccc(-c6cc7c(=O)n(C[C@@H]8CCC(=O)N8)c(C8CC8)cn7c6)c5Cl)c4Cl)cc3c2=O)N1` [Compound 31, 7,7′-(2,2′-dichloro-[1,1′-biphenyl]-3,3′-diyl)bis(3-cyclopropyl-2-(((S)-5-oxopyrrolidin-2-yl)methyl)pyrrolo[1,2-a]pyrazin-1(2H)-one)] registered an IC50 of 10 to 100 nM.

`O=C1CC[C@@H](Cn2c(C3CC3)cn3nc(-c4cccc(-c5cccc(-c6cc7c(=O)n(C[C@@H]8CCC(=O)N8)c(C8CC8)cn7n6)c5Cl)c4Cl)cc3c2=O)N1` [Compound 32, 2,2′-(2,2′-dichloro-[1,1′-biphenyl]-3,3′-diyl)bis(6-cyclopropyl-5-(((S)-5-oxopyrrolidin-2-yl)methyl)pyrazolo[1,5-a]pyrazin-4(5H)-one)] registered an IC50 of 10 to 100 nM.

As for `CCc1cn2nc(-c3cccc(-c4cccc(-c5cc6c(=O)n(C[C@@H]7CCC(=O)N7)c(CC)cn6n5)c4Cl)c3Cl)cc2c(=O)n1C[C@@H]1CCC(=O)N1` [Compound 33, 2,2′-(2,2′-dichloro-[1,1′-biphenyl]-3,3′-diyl)bis(6-ethyl-5-(((S)-5-oxopyrrolidin-2-yl)methyl)pyrazolo[1,5-a]pyrazin-4(5H)-one)], the IC50 is 10 to 100 nM.

Regarding `O=C1CC[C@@H](Cn2c(C3CC3)nn3cc(-c4cccc(-c5cccc(-c6cc7c(=O)n(C[C@@H]8CCC(=O)N8)c(C8CC8)nn7c6)c5Cl)c4Cl)cc3c2=O)N1` [Compound 34, 6,6′-(2,2′-dichloro-[1,1′-biphenyl]-3,3′-diyl)bis(2-cyclopropyl-3-(((S)-5-oxopyrrolidin-2-yl)methyl)pyrrolo[2,1-f][1,2,4]triazin-4(3H)-one)], the IC50 lay within 10 to 100 nM.

Regarding `Cc1nn2cc(-c3cccc(-c4cccc(-c5cc6c(=O)n(C[C@@H]7CCC(=O)N7)c(C)nn6c5)c4Cl)c3Cl)cc2c(=O)n1C[C@@H]1CCC(=O)N1` [Compound 35, 6,6′-(2,2′-dichloro-[1,1′-biphenyl]-3,3′-diyl)bis(2-methyl-3-(((S)-5-oxopyrrolidin-2-yl)methyl)pyrrolo[2,1-f][1,2,4]triazin-4(3H)-one)], the IC50 is under 10 nM.

Regarding `Cc1cn2nc(-c3cccc(-c4cccc(-c5cc6c(=O)n(C[C@H]7CCCN7)c(C)cn6n5)c4Cl)c3Cl)cc2c(=O)n1C[C@H]1CCCN1` [Compound 37, 2,2′-(2,2′-dichloro-[1,1′-biphenyl]-3,3′-diyl)bis(6-methyl-5-(((R)-pyrrolidin-2-yl)methyl)pyrazolo[1,5-a]pyrazin-4(5H)-one) dihydrochloride], the IC50 was in the range of 10 to 100 nM.

`Cc1cn2cc(-c3cccc(-c4cccc(-c5cc6c(=O)n(C[C@@H]7CCCN7)c(C)cn6c5)c4Cl)c3Cl)cc2c(=O)n1C[C@@H]1CCCN1` [Compound 38, 7,7′-(2,2′-dichloro-[1,1′-biphenyl]-3,3′-diyl)bis(3-methyl-2-(((S)-pyrrolidin-2-yl)methyl)pyrrolo[1,2-a]pyrazin-1(2H)-one)]: the IC50 lay in the range of 10 to 100 nM.

Take `Cc1cn2cc(-c3cccc(-c4cccc(-c5cc6c(=O)n(C[C@H]7CCCN7)c(C)cn6c5)c4Cl)c3Cl)cc2c(=O)n1C[C@H]1CCCN1` [Compound 39, 7,7′-(2,2′-dichloro-[1,1′-biphenyl]-3,3′-diyl)bis(3-methyl-2-(((R)-pyrrolidin-2-yl)methyl)pyrrolo[1,2-a]pyrazin-1(2H)-one)]: the IC50 was 10 to 100 nM.

On to `Cn1c(CN2CC[C@H](C(=O)O)C2)cn2nc(-c3cccc(-c4cccc(-c5cc6c(=O)n(C)c(CN7CC[C@H](C(=O)O)C7)cn6n5)c4Cl)c3Cl)cc2c1=O` [Compound 41, (3S,3'S)-1,1′-(((2,2′-dichloro-[1,1′-biphenyl]-3,3′-diyl)bis(5-methyl-4-oxo-4,5-dihydropyrazolo[1,5-a]pyrazine-2,6-diyl))bis(methylene))bis(pyrrolidine-3-carboxylic acid)], for which the IC50 lay within 10 to 100 nM.

On to `Cn1c(CNCCO)cn2nc(-c3cccc(-c4cccc(-c5cc6c(=O)n(C)c(CNCCO)cn6n5)c4Cl)c3Cl)cc2c1=O` [Compound 42, 2,2′-(2,2′-dichloro-[1,1′-biphenyl]-3,3′-diyl)bis(6-(((2-hydroxyethyl)amino)methyl)-5-methylpyrazolo[1,5-a]pyrazin-4(5H)-one)], for which the IC50 was under 10 nM.

`CC(=O)NCCNCc1cn2cc(-c3cccc(-c4cccc(-c5cc6c(=O)n(C)c(CNCCNC(C)=O)cn6c5)c4Cl)c3Cl)cc2c(=O)n1C` [Compound 44, N,N′-(((((2,2′-dichloro-[1,1′-biphenyl]-3,3′-diyl)bis(2-methyl-1-oxo-1,2-dihydropyrrolo[1,2-a]pyrazine-7,3-diyl))bis(methylene))bis(azanediyl))bis(ethane-2,1-diyl))diacetamide] came in with an IC50 of 10 to 100 nM.
